According to ChEMBL document CHEMBL1201862, “PubChem BioAssay data set” (2004):
Blank lines part the entries; values can stand above or below the molecule they belong to. Calls of active or inactive are those of the source.

Tests used:
[1] = target: Hepatocyte nuclear factor 4-alpha (Homo sapiens, UniProt P41235); format: functional, cell-based;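 also: biochemical luminescence-based dose-response counterscreen measuring inhibition of HNF4 dimerization, run alongside a screen for blockers of ABHD5–perilipin-5 interaction; split luciferase complementation of HNF4 fusion proteins in cell lysate measuring dimerization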
Hepatocyte nuclear factor 4-alpha, sequence (P41235 whole entry, the tested form may be a part): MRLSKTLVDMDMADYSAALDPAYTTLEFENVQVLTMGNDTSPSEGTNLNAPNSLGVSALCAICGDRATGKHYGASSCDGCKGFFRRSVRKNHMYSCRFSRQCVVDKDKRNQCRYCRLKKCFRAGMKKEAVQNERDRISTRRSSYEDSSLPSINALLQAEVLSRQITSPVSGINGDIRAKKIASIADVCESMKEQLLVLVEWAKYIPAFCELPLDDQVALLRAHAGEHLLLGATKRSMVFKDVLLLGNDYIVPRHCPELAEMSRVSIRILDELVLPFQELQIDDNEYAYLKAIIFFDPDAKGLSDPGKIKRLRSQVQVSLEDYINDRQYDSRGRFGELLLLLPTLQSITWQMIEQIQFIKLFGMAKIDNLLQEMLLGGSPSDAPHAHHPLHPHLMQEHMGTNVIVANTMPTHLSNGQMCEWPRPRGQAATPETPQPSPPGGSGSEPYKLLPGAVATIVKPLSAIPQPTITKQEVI

[2] = inhibition of ARNT PAS-B/TACC3 complex formation – biochemical, AlphaScreen, cherry-picked samples, confirmation (AID 651703); format: functional, Homo sapiens;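 also: His-tagged ARNT PAS-B domain paired with GST-TACC3 E629A dimer coactivator fragment; potency of inhibitors that break up the complex and lower AlphaScreen signal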
[3] = target: T1, Heat shock factor protein 1 (Mus musculus, UniProt P38532); test: enhancement of HSF1-driven luciferase signal – cell-based, NIH3T3, luminescence, dose retest, confirmation (AID 435004); format: functional;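 also: stress induced by proteasome inhibitor MG132 added 30 min after compound; luciferase reporter driven by HSF1 response element in NIH3T3 cells; actives raise luminescence as potentiators of the MG132 stress response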
T1 sequence (P38532 whole entry): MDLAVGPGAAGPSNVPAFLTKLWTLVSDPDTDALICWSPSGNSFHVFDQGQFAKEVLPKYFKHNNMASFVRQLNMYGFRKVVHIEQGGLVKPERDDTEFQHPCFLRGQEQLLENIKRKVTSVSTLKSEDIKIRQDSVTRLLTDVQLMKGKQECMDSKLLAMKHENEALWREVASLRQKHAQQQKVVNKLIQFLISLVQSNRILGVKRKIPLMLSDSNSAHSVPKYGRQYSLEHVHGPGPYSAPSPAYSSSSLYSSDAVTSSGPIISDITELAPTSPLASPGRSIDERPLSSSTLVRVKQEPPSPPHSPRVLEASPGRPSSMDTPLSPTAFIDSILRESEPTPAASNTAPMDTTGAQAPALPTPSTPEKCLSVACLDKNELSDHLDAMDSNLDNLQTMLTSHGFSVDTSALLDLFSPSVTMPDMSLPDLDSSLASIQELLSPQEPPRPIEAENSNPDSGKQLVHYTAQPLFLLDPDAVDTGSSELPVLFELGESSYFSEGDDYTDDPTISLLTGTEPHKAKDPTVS

[4] = target: T2, Probable nicotinate-nucleotide adenylyltransferase (Staphylococcus aureus (strain N315), UniProt P65502); format: functional, Staphylococcus aureus subsp. aureus N315; details: read-out: IC50_Mean;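 as to IC50 Mean: confirmatory dose-response retesting of NadD inhibitor hits first found in an ultra-high-throughput screen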
[5] = target: T2, Probable nicotinate-nucleotide adenylyltransferase; format: functional, Staphylococcus aureus subsp. aureus N315
[6] = target: Tyrosine-protein phosphatase non-receptor type 5 (Homo sapiens, UniProt P54829); test: PTPN5 enzyme inhibition – biochemical, fluorescence intensity, uHTS hits, confirmation (AID 602372); format: functional; details: read-out: IC50_Mean
Tyrosine-protein phosphatase non-receptor type 5, sequence (P54829 whole entry): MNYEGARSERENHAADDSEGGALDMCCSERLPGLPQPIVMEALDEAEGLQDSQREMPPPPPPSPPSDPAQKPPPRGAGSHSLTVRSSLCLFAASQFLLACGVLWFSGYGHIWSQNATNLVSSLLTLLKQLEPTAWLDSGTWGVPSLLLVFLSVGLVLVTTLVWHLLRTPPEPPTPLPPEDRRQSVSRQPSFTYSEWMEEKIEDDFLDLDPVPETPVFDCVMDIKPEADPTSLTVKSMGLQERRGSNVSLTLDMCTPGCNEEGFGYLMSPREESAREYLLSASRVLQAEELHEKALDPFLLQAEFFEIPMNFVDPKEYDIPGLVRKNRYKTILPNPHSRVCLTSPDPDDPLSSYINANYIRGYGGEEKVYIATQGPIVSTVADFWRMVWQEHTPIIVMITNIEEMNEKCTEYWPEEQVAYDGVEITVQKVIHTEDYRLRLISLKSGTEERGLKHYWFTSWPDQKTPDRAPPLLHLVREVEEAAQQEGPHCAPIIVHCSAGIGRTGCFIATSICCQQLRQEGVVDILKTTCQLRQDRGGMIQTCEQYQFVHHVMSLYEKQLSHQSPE

[7] = target: T3, Low molecular weight phosphotyrosine protein phosphatase (Homo sapiens, UniProt P24666); format: functional; details: read-out: IC50_Mean
T3 sequence (P24666 whole entry): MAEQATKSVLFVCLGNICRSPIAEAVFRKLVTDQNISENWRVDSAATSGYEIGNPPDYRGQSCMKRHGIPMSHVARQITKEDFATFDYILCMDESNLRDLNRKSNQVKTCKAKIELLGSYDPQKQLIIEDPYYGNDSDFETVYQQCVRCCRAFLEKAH

[8] = target: T4, Carboxy-terminal domain RNA polymerase II polypeptide A small phosphatase 1 (Homo sapiens, UniProt Q9GZU7); test: CTDSP1 inhibitors, concentration-response, biochemical, absorbance readout, ultra-high-throughput screen actives (AID 540297); format: functional
T4 sequence (Q9GZU7 whole entry): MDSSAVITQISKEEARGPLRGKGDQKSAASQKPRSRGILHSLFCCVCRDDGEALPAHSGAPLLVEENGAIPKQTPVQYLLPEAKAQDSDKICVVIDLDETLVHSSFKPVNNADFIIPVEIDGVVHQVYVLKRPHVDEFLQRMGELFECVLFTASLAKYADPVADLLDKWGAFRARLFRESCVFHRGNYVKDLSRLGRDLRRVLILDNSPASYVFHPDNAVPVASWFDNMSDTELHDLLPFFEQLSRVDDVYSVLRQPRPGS

[9] = target: Dual specificity protein phosphatase 3 (Homo sapiens, UniProt P51452); test: VHR phosphatase inhibition, dose response, selectivity assay for STEP inhibitor project, biochemical (AID 602374); format: functional; details: read-out: IC50_Mean
Dual specificity protein phosphatase 3, sequence (P51452 whole entry): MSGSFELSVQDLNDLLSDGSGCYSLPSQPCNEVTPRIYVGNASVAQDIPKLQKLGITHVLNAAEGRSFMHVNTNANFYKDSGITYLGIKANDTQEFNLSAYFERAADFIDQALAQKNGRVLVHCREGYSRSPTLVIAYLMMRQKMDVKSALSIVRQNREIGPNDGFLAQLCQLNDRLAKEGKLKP

[10] = target: T3, Low molecular weight phosphotyrosine protein phosphatase; format: functional; details: read-out: IC50_Mean; remark: listed apart in the source
[11] = target: T5, Tyrosine-protein phosphatase non-receptor type 22 (Homo sapiens, UniProt Q9Y2R2); test: PTPN22 enzyme inhibitors – biochemical, fluorescence, LYP catalytic domain, selectivity assay for LMPTP inhibitor project, dose response (AID 652006); format: functional; details: read-out: IC50_Mean
T5 sequence (Q9Y2R2 whole entry): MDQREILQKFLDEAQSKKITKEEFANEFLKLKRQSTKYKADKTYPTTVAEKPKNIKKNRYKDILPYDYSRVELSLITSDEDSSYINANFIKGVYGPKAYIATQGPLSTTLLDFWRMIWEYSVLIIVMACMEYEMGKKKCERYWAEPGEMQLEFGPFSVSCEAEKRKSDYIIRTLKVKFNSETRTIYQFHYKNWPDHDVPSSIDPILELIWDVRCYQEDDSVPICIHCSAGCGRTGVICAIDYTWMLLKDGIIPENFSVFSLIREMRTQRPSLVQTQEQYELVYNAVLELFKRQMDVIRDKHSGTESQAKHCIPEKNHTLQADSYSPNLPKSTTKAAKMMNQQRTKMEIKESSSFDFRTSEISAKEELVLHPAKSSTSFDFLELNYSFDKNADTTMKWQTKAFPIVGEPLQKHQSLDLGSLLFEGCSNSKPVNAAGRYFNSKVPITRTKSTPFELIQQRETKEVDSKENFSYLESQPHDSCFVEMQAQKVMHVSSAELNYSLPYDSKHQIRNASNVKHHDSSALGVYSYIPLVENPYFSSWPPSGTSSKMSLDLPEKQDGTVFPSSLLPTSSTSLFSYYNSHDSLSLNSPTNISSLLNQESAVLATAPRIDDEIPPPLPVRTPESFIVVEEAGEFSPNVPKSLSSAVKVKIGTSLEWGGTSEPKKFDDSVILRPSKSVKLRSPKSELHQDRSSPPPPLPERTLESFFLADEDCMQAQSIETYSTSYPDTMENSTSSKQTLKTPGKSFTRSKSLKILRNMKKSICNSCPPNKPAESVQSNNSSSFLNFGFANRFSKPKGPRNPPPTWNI

[12] = target: Tyrosine-protein phosphatase non-receptor type 11 (Homo sapiens, UniProt Q06124); test: PTPN11 enzyme inhibitors – biochemical, selectivity assay for STEP inhibitor project, dose response (AID 602367); format: functional; details: read-out: IC50_Mean
[13] = nonselective StAR promoter luciferase inhibitors – cell-based, luminescence, luciferase reporter, counter-screen for LRH-1 inverse agonist project, dose response (AID 651969); format: functional
[14] = target: Nuclear receptor subfamily 5 group A member 2 (Homo sapiens, UniProt O00482); format: functional, cell-based;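 also: HEK293T cells transfected with LRH-1 and a StAR promoter luciferase reporter; potency for inhibitors that lower LRH-1 driven reporter light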
Nuclear receptor subfamily 5 group A member 2, sequence (O00482 whole entry): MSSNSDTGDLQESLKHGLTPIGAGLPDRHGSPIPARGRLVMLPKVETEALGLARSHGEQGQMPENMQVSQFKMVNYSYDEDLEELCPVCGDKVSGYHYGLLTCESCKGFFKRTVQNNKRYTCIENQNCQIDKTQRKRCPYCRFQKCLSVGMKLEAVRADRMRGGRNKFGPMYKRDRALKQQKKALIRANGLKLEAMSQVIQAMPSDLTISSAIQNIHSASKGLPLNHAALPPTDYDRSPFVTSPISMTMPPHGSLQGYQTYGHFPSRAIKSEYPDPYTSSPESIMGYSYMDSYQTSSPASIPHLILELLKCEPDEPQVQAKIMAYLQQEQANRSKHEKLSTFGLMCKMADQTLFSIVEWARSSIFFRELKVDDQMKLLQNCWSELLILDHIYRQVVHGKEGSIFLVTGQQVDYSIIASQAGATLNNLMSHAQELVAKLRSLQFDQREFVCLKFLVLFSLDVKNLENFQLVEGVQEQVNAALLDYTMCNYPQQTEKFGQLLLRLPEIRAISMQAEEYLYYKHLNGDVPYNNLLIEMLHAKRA

Steroidogenic factor 1 = Steroidogenic factor 1 (Homo sapiens, UniProt Q13285); test: Counterscreen for inverse agonists of the liver receptor homolog-1 (LRH-1; NR5A2): Luminescence-based cell-based high throughput dose response assay to identify inverse agonists of the Steroidogenic Factor 1 Nuclear Receptor (SF1; NR5A1).; format: functional
Steroidogenic factor 1, sequence (Q13285 whole entry): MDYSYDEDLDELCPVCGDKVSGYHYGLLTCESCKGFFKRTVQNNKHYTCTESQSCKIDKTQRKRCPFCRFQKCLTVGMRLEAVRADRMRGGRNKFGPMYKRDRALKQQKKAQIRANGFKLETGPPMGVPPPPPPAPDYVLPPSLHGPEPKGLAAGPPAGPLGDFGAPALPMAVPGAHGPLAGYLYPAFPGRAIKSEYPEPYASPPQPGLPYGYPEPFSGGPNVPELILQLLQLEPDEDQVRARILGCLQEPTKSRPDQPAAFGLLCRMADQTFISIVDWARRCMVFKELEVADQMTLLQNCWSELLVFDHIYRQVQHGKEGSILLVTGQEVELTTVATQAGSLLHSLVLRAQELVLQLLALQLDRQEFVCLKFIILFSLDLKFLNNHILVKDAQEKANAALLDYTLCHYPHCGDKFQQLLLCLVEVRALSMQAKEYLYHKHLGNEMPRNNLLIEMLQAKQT

Structure (SMILES): C/C=C/c1ccc([C@H]2[C@@H](CO)N(Cc3ccccn3)[C@@H]2CNC(C)=O)cc1
AC50 [2]: 93.3 µM (active)

Structure (SMILES): Cc1ccc(NC(=O)COC(=O)c2cc(=O)c3ccccc3o2)c(Br)c1
IC50 [13]: 35.9 µM (inactive)
IC50 [14]: 3.98 µM (active)
IC50 (Steroidogenic factor 1): 24.3 µM (inactive)

Results, then the molecule that gave them:

IC50 [1]: 1.81 µM (active)
Structure (SMILES): CC(C)(C)NC(=O)C(c1ccc(C(F)(F)F)cc1)n1c(=O)c(-c2ccco2)nc2ccccc21 (stereo not given)

EC50 [3]: > 260 µM (inactive)
IC50 [4]: 80 µM (inactive)
IC50 [5]: 44.3 µM (active)
Structure (SMILES): O=C(CNc1cccc2ccccc12)N/N=C/c1ccc([N+](=O)[O-])cc1

IC50 [6]: 9.39 µM (active)
IC50 [7]: 17.2 µM (active)
IC50 [8]: 3.55 µM (active)
IC50 [9]: 2.45 µM (active)
IC50 [10]: 11.2 µM (active)
IC50 [11]: 24.9 µM (inactive)
IC50 [12]: 1.37 µM (active)
Structure (SMILES): O=C(N/N=C/c1ccc(OC(=O)c2cccs2)cc1)c1cccc(F)c1
